Laboratory results as given in the NIST ThermoML archive (doi:10.1021/je400977r).

Assay: mn = molality of the nth substance listed, in mol/kg
Conditions: 101 kPa, Liquid; for speed of sound: Pulse-echo method

O=C[C@H](O)[C@H](O)[C@H](O)CO [D-ribose] + O
Conditions	mass density, 293.15 K [kg/m3]	mass density, 298.15 K [kg/m3]	mass density, 303.15 K [kg/m3]	mass density, 308.15 K [kg/m3]	mass density, 313.15 K [kg/m3]	speed of sound, 293.15 K [m/s]	speed of sound, 298.15 K [m/s]	speed of sound, 303.15 K [m/s]	speed of sound, 308.15 K [m/s]	speed of sound, 313.15 K [m/s]
m1 = 0.05	1001.07	999.887	998.463	996.819	994.955	1485.2	1499.2	1511.3	1521.9	1530.9
m1 = 0.055	1001.36	1000.17	998.749	997.103	995.237	1485.4	1499.4	1511.5	1522	1531
m1 = 0.06	1001.65	1000.47	999.035	997.383	995.517	1485.6	1499.5	1511.6	1522.2	1531.2
m1 = 0.065	1001.94	1000.75	999.317	997.667	995.796	1485.8	1499.7	1511.8	1522.3	1531.3
m1 = 0.07	1002.23	1001.04	999.606	997.954	996.076	1485.9	1499.8	1511.9	1522.5	1531.4
m1 = 0.075	1002.52	1001.33	999.887	998.237	996.357	1486.1	1500	1512	1522.6	1531.6
m1 = 0.08	1002.82	1001.62	1000.17	998.519	996.637	1486.2	1500.1	1512.2	1522.7	1531.7
m1 = 0.085	1003.11	1001.91	1000.47	998.806	996.917	1486.4	1500.2	1512.2	1522.8	1531.8
m1 = 0.09	1003.4	1002.21	1000.75	999.089	997.196	1486.5	1500.3	1512.4	1523	1532
m1 = 0.1	1003.98	1002.79	1001.33	999.652	997.754	1486.8	1500.6	1512.6	1523.2	1532.2

OC[C@H]1O[C@H](OC[C@H]2O[C@H](O[C@]3(CO)O[C@H](CO)[C@@H](O)[C@@H]3O)[C@H](O)[C@@H](O)[C@@H]2O)[C@H](O)[C@@H](O)[C@H]1O [D-raffinose] + O
Conditions	mass density, 293.15 K [kg/m3]	mass density, 298.15 K [kg/m3]	mass density, 303.15 K [kg/m3]	mass density, 308.15 K [kg/m3]	mass density, 313.15 K [kg/m3]	speed of sound, 293.15 K [m/s]	speed of sound, 298.15 K [m/s]	speed of sound, 303.15 K [m/s]	speed of sound, 308.15 K [m/s]	speed of sound, 313.15 K [m/s]
m1 = 0.05	1007.77	1006.5	1004.91	1003.05	1001.02	1491.8	1505.7	1517.8	1528.3	1537.3
m1 = 0.055	1008.68	1007.4	1005.81	1003.92	1001.99	1492.6	1506.5	1518.6	1529.1	1538.1
m1 = 0.06	1009.59	1008.29	1006.72	1004.79	1002.85	1493.5	1507.3	1519.4	1529.8	1538.8
m1 = 0.065	1010.49	1009.18	1007.61	1005.69	1003.72	1494.3	1508.2	1520.2	1530.6	1539.6
m1 = 0.07	1011.48	1010.16	1008.56	1006.61	1004.62	1495.1	1509	1521	1531.4	1540.4
m1 = 0.075	1012.36	1011.1	1009.46	1007.55	1005.58	1496	1509.8	1521.8	1532.1	1541.1
m1 = 0.08	1013.3	1011.98	1010.34	1008.42	1006.46	1496.8	1510.6	1522.6	1532.9	1541.9
m1 = 0.085	1014.21	1012.93	1011.23	1009.29	1007.35	1497.7	1511.4	1523.4	1533.7	1542.7
m1 = 0.09	1015.18	1013.88	1012.18	1010.25	1008.33	1498.5	1512.2	1524.2	1534.4	1543.4
m1 = 0.1	1016.99	1015.7	1014.08	1011.99	1010.23	1500.1	1513.9	1525.8	1536	1544.9

CC(C)C[C@H](N)C(=O)O [L-leucine] + O
Conditions	mass density, 293.15 K [kg/m3]	mass density, 298.15 K [kg/m3]	mass density, 303.15 K [kg/m3]	mass density, 308.15 K [kg/m3]	mass density, 313.15 K [kg/m3]	speed of sound, 293.15 K [m/s]	speed of sound, 298.15 K [m/s]	speed of sound, 303.15 K [m/s]	speed of sound, 308.15 K [m/s]	speed of sound, 313.15 K [m/s]
m1 = 0.025	998.94	997.765	996.352	994.719	992.893	1486.2	1500.2	1512.3	1522.8	1531.7
m1 = 0.05	999.543	998.36	996.938	995.302	993.464	1489.2	1502.9	1515	1525.4	1534.2
m1 = 0.1	1000.6	999.369	997.956	996.293	994.341	1495.2	1508.8	1520.6	1530.8	1539.4
